{
  "source": "patent US12448425B2",
  "about": "“Therapeutic peptides” (Board of Regents, The University of Texas System, priority 2019, dated 2025)",
  "key": {"EphB4": {"target": "T1, EphB4 (Homo sapiens, UniProt P54760)", "T1 construct": "purchased R&D Systems", "T1 sequence (P54760 16-987)": "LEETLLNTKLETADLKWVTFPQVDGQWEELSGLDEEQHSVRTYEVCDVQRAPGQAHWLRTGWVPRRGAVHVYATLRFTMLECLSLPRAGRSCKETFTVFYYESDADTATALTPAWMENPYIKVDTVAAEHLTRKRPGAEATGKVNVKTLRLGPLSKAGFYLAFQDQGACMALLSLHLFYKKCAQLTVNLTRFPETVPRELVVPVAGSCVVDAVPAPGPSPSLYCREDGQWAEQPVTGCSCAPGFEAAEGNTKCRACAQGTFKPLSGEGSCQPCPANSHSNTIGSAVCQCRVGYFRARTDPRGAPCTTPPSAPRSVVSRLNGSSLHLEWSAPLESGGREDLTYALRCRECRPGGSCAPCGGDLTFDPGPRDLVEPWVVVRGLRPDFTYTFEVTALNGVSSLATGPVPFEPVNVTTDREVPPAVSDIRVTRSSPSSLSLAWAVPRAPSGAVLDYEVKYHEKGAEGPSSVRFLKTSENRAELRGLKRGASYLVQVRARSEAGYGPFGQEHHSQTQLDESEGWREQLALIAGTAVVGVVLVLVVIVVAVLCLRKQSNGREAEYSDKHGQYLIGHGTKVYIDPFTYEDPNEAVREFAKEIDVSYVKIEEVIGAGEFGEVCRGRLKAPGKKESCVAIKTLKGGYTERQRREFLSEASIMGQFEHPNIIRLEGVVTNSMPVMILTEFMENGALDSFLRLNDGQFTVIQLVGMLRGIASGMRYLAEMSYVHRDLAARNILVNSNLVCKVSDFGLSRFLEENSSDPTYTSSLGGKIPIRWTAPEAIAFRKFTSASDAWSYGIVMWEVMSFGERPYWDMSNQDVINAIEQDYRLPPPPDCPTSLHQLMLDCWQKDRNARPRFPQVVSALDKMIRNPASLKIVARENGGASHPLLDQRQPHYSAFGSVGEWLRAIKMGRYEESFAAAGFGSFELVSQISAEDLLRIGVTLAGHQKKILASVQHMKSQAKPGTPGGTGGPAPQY", "test": "SPR binding of peptides to immobilized EphB4", "settings": "EphB4-coated sensor chips, 25° C.", "procedure": "Surface plasmon resonance (SPR) binding and competition assays. A stock solution of EphB4 in PBS (100 μg/mL) was diluted to 25 μg/mL with 10 mM sodium acetate buffer (pH 4.5) and immobilized to CM5 sensor chips using the amine coupling reaction according to manufacturer-provided procedures (BIACore). Briefly, the surfaces of the chips in flow cells (FC)-1 and FC-2 were activated by exposing chips to a mixture of 200 mM N-ethyl-N′-dimethylaminopropyl carbodiimide and 50 mM N-hydroxysuccinimide for 7 min. FC-1 was used as a reference surface and was directly deactivated by injecting 1 M ethanolamine at pH 8.5 for 7 min. FC-2 was injected with 25 μg/mL human or murine EphB4 followed by injection of 1 M ethanolamine to block the remaining activated ester groups on the surface. The chips were allowed to stabilize for at least 2 h in HBSEP running buffer before injection of test analytes."}, "4T1 cells": {"system": "4T1 cells", "test": "4T1 i.v. lung metastasis model", "set-up": "species or system mouse", "settings": "throughout these in vivo studies", "from_the_text": "FIGS. 25A-B: Anti-metastatic activity of BIDEN-AP. (FIG. 25A) Representative photographs of lungs from different treatment groups. The normal lung tissue was stained by blue ink. (FIG. 25B) Counts of surface metastatic nodules in the lung by visual inspection. Data are expressed as mean±SD. **p<0.01 (n=10).\nBIDEN-AP was given at the same dose and the same schedule as in FIG. 24A. […] Thus, BIDEN-AP is highly anti-metastatic."}, "[1]": {"system": "EphB4 on the surface of A2780cp20 cells", "format": "cell-based, human", "settings": "1 h", "procedure": "Cell-based binding assay. A2780cp20 ovarian cancer cells (1×10^6 cells/mL) were incubated with EFNB2-Fc (20 nM) and BIDEN-AP at concentrations ranging from 0 to 100 μM at 25° C. for 1 h. After washings, EFNB2-Fc bound to the cells were probed with PE-labeled anti-Fc antibody and analyzed by flow cytometry. Binding of BIDEN-AP to A2780cp20 cells was determined by its ability to displace EFNB2-Fc's binding to the tumor cells, measured by decreased PE fluorescence signal. Cells were analyzed in a Cellquest fluorocytometer (BD Bioscience, San Jose, CA). The experiments were run in duplicate."}, "MDA-HGSC-1 PDX tumor": {"system": "MDA-HGSC-1 PDX tumor", "settings": "mouse, in vivo", "from_the_text": "PDX model of high grade serous ovarian carcinoma (HGSC). Under Institutional Review Board (IRB protocol PA15-0441) and IACUC approval at University of Texas, MD Anderson Cancer Center, patients with high-serous ovarian carcinoma that were being treated by at the MD Anderson Cancer Center were consented for this study. Subcutaneous HGSC-PDX model was established in 4-6 week old female Balb C athymic nude mice (Harlan Laboratories, Indianapolis, Ind.) by implanting one PDX 3×3×3 mm tumor cube (MDA-HGSOC-1 high-grade serous ovarian cancer; generation 9) at the dorsal portion of each mouse. Tumor size was monitored by caliber, and tumor volume was calculated using the formula V(cm^3)=(length×width^2)/2. Mice were randomly assigned to the PBS vehicle control or BIDEN-AP treatment group, 6 mice per group, once tumor size reached ˜100 mm^3 (21 days after implantation). PBS or BIDEN-AP was injected intraperitoneally at […] ([…]), once every other day for a total of 14 doses. At the end of the study (day 49), all mice were euthanized, and tumors were collected, weighted, and snap-frozen in optimal cutting temperature compound with liquid nitrogen, and cryosectioned into 5-μm sections for IHC staining of CD31 and Ki67 markers. […] Cell nuclei were counterstained with DAPI."}, "A2780cp20 cells": {"system": "A2780cp20 cells", "test": "Internalization of Alexa647-labeled peptides (confocal microscopy)", "format": "cell-based, human", "procedure": "FIGS. 2A-C: BIDEN-AP acts as an EphB4 agonist. (FIG. 2A) BIDEN-AP induced phosphorylation of EphB4 and the associated […] (Crk1). After 16 h serum starvation, A2780cp20 cells were incubated with EFNB2-Fc (20 nM), TNYL-RAW (SEQ ID NO: 12) (50 μM), or BIDEN-AP (50 μM) for 30 min or 2 h. The uncropped blots were available at Supplemental FIG. 11. (FIG. 2B) BIDEN-AP inhibited A2780cp20 cell invasion compared to untreated control (CTL). A modified Boyden transwell chamber coated with human defined matrigel was used. Experiments were performed in triplicate. Data are presented as mean±SD. ***p<0.001. (FIG. 2C) Alexa647-BIDEN-AP was internalized via receptor-mediated endocytosis. A2780cp20 cells were incubated at 37° C. with Alexa647-BIDEN-AP (0.05 μM), Alexa647-TNYL-RAW (SEQ ID NO: 12) (0.05 μM), or Alexa647-BIDEN-AP (0.05 μM) plus unlabeled TNYL-RAW (SEQ ID NO: 12) (5 μM, blocking). Alexa647-BIDEN-AP but not Alexa647-TNYL-RAW (SEQ ID NO: 12) was internalized into the A2780cp20 cells.\nA2780cp20 cells were incubated at 4° C. with Alexa647-BIDEN-AP (0.05 μM).\nImmunofluorescence imaging. A2780cp20 ovarian cancer cells (5×10^5 cells/well) were plated in 4-well chamber slides and treated with Alexa647-labeled BIDEN-AP (50 μM) for 1 h or 2 h. Cells were washed three times with 1×PBS and fixed in freshly prepared fixative containing 3.7% formaldehyde, 0.05% glutaraldehyde, and 0.4% Triton-X-100 in PHEMO buffer (0.068 M PIPES, 0.025 M HEPES, 0.015 M EGTA, 0.003 M MgCl2, and 10% ov/v dimethylsufoxide [DMSO]) for 10 min at room temperature. LysoTracker Green (Cat. L7526; Invitrogen, Carlsbad, CA) was used as a marker of lysosome. The nucleus was stained with Hoechst 33342 (300 nM) at room temperature for 10 min before mounting in Gel Mount mounting medium (Vector Laboratories, Burlingame, CA). Fixed and immunofluorescence-stained cells were imaged using a Zeiss LSM510 Meta laser scanning confocal system (Zeiss, Dublin, CA) configured to a Zeiss Axioplan 2 upright microscope with a CFI Plan Apo Lambda 20× objective lens. Images were obtained from three independent biological replicates."}, "[2]": {"settings": "Zhang et al., 2011b; cited from earlier work"}},
  "note": "Square brackets hold non-standard residues; d marks the D form. Ends that are not written are not given here. Peptide text beside a SMILES is read from it.",
  "data": [
    {"molecule": "CC[C@H](C)[C@H](NC(=O)[C@@H]1CCCN1C(=O)CNC(=O)[C@H](CC(N)=O)NC(=O)[C@@H]1CCCN1C(=O)[C@@H](CO)NC(=O)[C@H](Cc1ccccc1)NC(=O)[C@H](CC(C)C)NC(=O)[C@H](Cc1ccc(O)cc1)NC(=O)[C@H](CC(N)=O)NC(=O)[C@@H](N)[C@@H](C)O)C(=O)N[C@@H](C)C(=O)N[C@@H](CCCNC(=N)N)C(=O)N[C@@H](C)C(=O)N[C@@H](Cc1c[nH]c2ccccc12)C(N)=O", "note": "[B4-006] (H-TNYLF[dS]PNGPIARAW-NH2)", "values": [
      {"measurement": "Kd", "setting": "EphB4", "result": "> 1000", "unit": "nM"}
    ]},
    {"molecule": "CC[C@H](C)[C@H](NC(=O)[C@@H]1CCCN1C(=O)CNC(=O)[C@H](CC(N)=O)NC(=O)[C@@H]1CCCN1C(=O)[C@H](CO)NC(=O)[C@H](Cc1ccccc1)NC(=O)[C@H](CC(C)C)NC(=O)[C@@H](Cc1ccc(O)cc1)NC(=O)[C@H](CC(N)=O)NC(=O)[C@@H](N)[C@@H](C)O)C(=O)N[C@@H](C)C(=O)N[C@@H](CCCNC(=N)N)C(=O)N[C@@H](C)C(=O)N[C@@H](Cc1c[nH]c2ccccc12)C(N)=O", "note": "[BIDEN-AP] (H-TN[dY]LFSPNGPIARAW-NH2; C-terminus assumed)", "values": [
      {"measurement": "tolerability (treatment-related death, body weight)", "setting": "4T1 cells", "result": "no cases of treatment-related death or change in body weight"},
      {"measurement": "IC50", "setting": "[1]", "result": "~1000", "unit": "nM"},
      {"measurement": "body weight change vs control group", "setting": "MDA-HGSC-1 PDX tumor", "result": "did not result in body weight change"}
    ]},
    {"molecule": "Alexa647-BIDEN-AP: BIDEN-AP coupled with Alexa647-NHS (TN[dY]LFSPNGPIARAW; also: Alexa647 label, site not given here)", "values": [
      {"measurement": "cellular internalization at 37° C.", "setting": "A2780cp20 cells", "result": "readily internalized"},
      {"measurement": "internalization in presence of excess unlabeled TNYL-RAW", "setting": "A2780cp20 cells; 37° C., blocking", "result": "blocked"}
    ]},
    {"molecule": "Alexa647-TNYL-RAW: TNYL-RAW coupled with Alexa647-NHS (TNYLRAW; also: Alexa647 label, site not given here) [reference compound]", "values": [
      {"measurement": "cellular internalization at 37° C.", "setting": "A2780cp20 cells", "result": "excluded"}
    ]},
    {"molecule": "TNYLFSPNGPIARAW-NH2 (C-terminus assumed) [TNYL-RAW]", "values": [
      {"measurement": "area-under-the time curve [AUC]", "setting": "[2]", "result": 29.1, "unit": "% ID h/mL"}
    ]},
    {"molecule": "YSA-TNYL-RAW-dimer [B4-003]", "values": [
      {"measurement": "Kd", "setting": "EphB4", "result": 21, "unit": "nM"}
    ]}
  ]
}
